Measurements published in the NIST ThermoML archive (doi:10.1021/je0202073).

Experiments:
[1] = excess molar enthalpy (molar enthalpy of mixing); xn = mol fraction of the nth substance listed; conditions: 101.3 kPa, Liquid, Calvet calorimetry
[2] = xn = mol fraction of the nth substance listed; conditions: 101.3 kPa, Liquid

CCCC(=O)OCC [ethyl butanoate] + CC(C)(C)O
Conditions	excess molar enthalpy [kcal/mol]	excess molar volume [m3/mol]
[1], 299.15 K, x1 = 0.0438	0.0602	–
[1], 299.15 K, x1 = 0.0937	0.123	–
[1], 299.15 K, x1 = 0.1461	0.186	–
[1], 299.15 K, x1 = 0.1991	0.249	–
[1], 299.15 K, x1 = 0.2541	0.296	–
[1], 299.15 K, x1 = 0.3061	0.337	–
[1], 299.15 K, x1 = 0.3568	0.37	–
[1], 299.15 K, x1 = 0.4053	0.393	–
[1], 299.15 K, x1 = 0.4331	0.405	–
[1], 299.15 K, x1 = 0.4818	0.416	–
[1], 299.15 K, x1 = 0.5387	0.419	–
[1], 299.15 K, x1 = 0.6024	0.409	–
[1], 299.15 K, x1 = 0.6746	0.381	–
[1], 299.15 K, x1 = 0.7522	0.331	–
[1], 299.15 K, x1 = 0.833	0.251	–
[1], 299.15 K, x1 = 0.9172	0.143	–
[1], 318.15 K, x1 = 0.0394	0.0701	–
[1], 318.15 K, x1 = 0.0951	0.138	–
[1], 318.15 K, x1 = 0.158	0.203	–
[1], 318.15 K, x1 = 0.2201	0.26	–
[1], 318.15 K, x1 = 0.2807	0.313	–
[1], 318.15 K, x1 = 0.3377	0.349	–
[1], 318.15 K, x1 = 0.385	0.376	–
[1], 318.15 K, x1 = 0.4267	0.392	–
[1], 318.15 K, x1 = 0.4576	0.404	–
[1], 318.15 K, x1 = 0.4628	0.405	–
[1], 318.15 K, x1 = 0.4938	0.412	–
[1], 318.15 K, x1 = 0.5386	0.415	–
[1], 318.15 K, x1 = 0.5934	0.41	–
[1], 318.15 K, x1 = 0.6595	0.387	–
[1], 318.15 K, x1 = 0.7407	0.336	–
[1], 318.15 K, x1 = 0.8336	0.249	–
[1], 318.15 K, x1 = 0.9223	0.136	–
[2], 303.15 K, x1 = 0.0445	–	9.2e-07
[2], 303.15 K, x1 = 0.0966	–	2.08e-06
[2], 303.15 K, x1 = 0.1518	–	3.11e-06
[2], 303.15 K, x1 = 0.1999	–	3.83e-06
[2], 303.15 K, x1 = 0.2466	–	4.41e-06
[2], 303.15 K, x1 = 0.3111	–	5.13e-06
[2], 303.15 K, x1 = 0.3504	–	5.6e-06
[2], 303.15 K, x1 = 0.4043	–	5.91e-06
[2], 303.15 K, x1 = 0.4468	–	6.09e-06
[2], 303.15 K, x1 = 0.4837	–	6.11e-06
[2], 303.15 K, x1 = 0.5015	–	6.11e-06
[2], 303.15 K, x1 = 0.5259	–	6.07e-06
[2], 303.15 K, x1 = 0.5538	–	5.99e-06
[2], 303.15 K, x1 = 0.6004	–	5.74e-06
[2], 303.15 K, x1 = 0.6399	–	5.5e-06
[2], 303.15 K, x1 = 0.663	–	5.23e-06
[2], 303.15 K, x1 = 0.7129	–	4.83e-06
[2], 303.15 K, x1 = 0.7538	–	4.33e-06
[2], 303.15 K, x1 = 0.7934	–	3.77e-06
[2], 303.15 K, x1 = 0.8465	–	2.99e-06
[2], 303.15 K, x1 = 0.9017	–	2e-06
[2], 303.15 K, x1 = 0.9614	–	8.2e-07
[2], 318.15 K, x1 = 0.0604	–	1.83e-06
[2], 318.15 K, x1 = 0.1099	–	2.85e-06
[2], 318.15 K, x1 = 0.1559	–	3.63e-06
[2], 318.15 K, x1 = 0.2141	–	4.45e-06
[2], 318.15 K, x1 = 0.265	–	5.17e-06
[2], 318.15 K, x1 = 0.2982	–	5.41e-06
[2], 318.15 K, x1 = 0.3386	–	5.74e-06
[2], 318.15 K, x1 = 0.39	–	6.14e-06
[2], 318.15 K, x1 = 0.4477	–	6.44e-06
[2], 318.15 K, x1 = 0.4595	–	6.5e-06
[2], 318.15 K, x1 = 0.4778	–	6.53e-06
[2], 318.15 K, x1 = 0.4982	–	6.55e-06
[2], 318.15 K, x1 = 0.4996	–	6.56e-06
[2], 318.15 K, x1 = 0.5163	–	6.56e-06
[2], 318.15 K, x1 = 0.5222	–	6.55e-06
[2], 318.15 K, x1 = 0.5936	–	6.38e-06
[2], 318.15 K, x1 = 0.6597	–	6.03e-06
[2], 318.15 K, x1 = 0.7011	–	5.73e-06
[2], 318.15 K, x1 = 0.745	–	5.15e-06
[2], 318.15 K, x1 = 0.7968	–	4.5e-06
[2], 318.15 K, x1 = 0.8396	–	3.81e-06
[2], 318.15 K, x1 = 0.8701	–	3.15e-06
[2], 318.15 K, x1 = 0.9283	–	2.01e-06
